Source: article PMC7714071, “Interaction of amyloid beta with humanin and acetylcholinesterase is modulated by ATP” (FEBS Open Bio, 2020)

Legend:
[1] = test system: HN-Aβ complex (A549 cell-conditioned media); assay: ELISA, HN found in a complex with Aβ in A549 cell-conditioned media; type: binding, human; conditions: 6E10 or 82E1 on wells, relative to samples without ATP, three experiments in triplicate, Fig. 5A
Description: (§1) Human NSCLC cell lines, A549 (ATCC CCL‐185) and H1299 (ATCC CRL‐5803), were purchased from the American Type Culture Collection (ATCC, Manassas, VA, USA). Cells were seeded as we reported earlier in 5 mL HyClone Dulbecco's modified Eagle's medium/nutrient mixture F‐12 (DMEM/F12) (GE Healthcare Life Sciences, Pittsburgh, PA, USA), supplemented with 10% Fetalgro bovine growth serum (FBS; RMBIO, Missoula, MT, USA), 50 U·mL^−1 penicillin, and […] streptomycin (Invitrogen, Life Technologies, Carlsbad, CA, USA) in 25‐cm^2 tissue culture flasks, and allowed to grow overnight in an incubator at 37 °C, 95% humidity, and 5% CO2. The cells were counted after trypan blue staining, with a hemocytometer.
ELISAs were carried out as we previously reported. […] TBST was then used to wash the wells 4× before proceeding in one of two ways: (a) biotinylated samples were analyzed by adding 100 µL streptavidin–HRP conjugate in TBST (1 : 2500 dilution) to the samples followed by incubation for 3 h at RT on a shaker, or (b) samples without biotin were analyzed by adding 100 µL TBST containing the primary antibody as per the manufacturer's recommendation, incubating for 3 h at RT on a shaker, followed by washing the wells 4× with TBST. […] The reaction was stopped with 100 µL 2 M H2SO4 after incubating at RT for 0.5–15 min, resulting in a yellow color change, measured by absorbance at 450 nm. […]

[2] = test system: Aβ from A549 cell-conditioned media; assay: ELISA, HN (endogenous and exogenously added) and AChE bound to Aβ from A549 media on 82E1 antibody; type: binding, human; conditions: Fig. 6A
Description: as §1
ELISAs were carried out as we previously reported. Nunc MaxiSorp 96‐well flat bottom plate (Thermo Fisher) wells were coated with samples as indicated. The plates were incubated overnight at 4 °C on a shaker to allow binding of the samples to the plate wells. After the incubation, the wells were washed 4× with TBST, filled with 400 µL blocking buffer (110 mM KCl, 5 mM NaHCO3, 5 mM MgCl2, 1 mM EGTA, 0.1 mM CaCl2, 20 mM HEPES, 1% BSA, pH 7.4), and incubated with shaking overnight at 4 °C. The wells were then washed 4× with TBST, and 100 µL of sample at the desired concentration was added to each well and incubated with shaking overnight at 4 °C. TBST was then used to wash the wells 4× before proceeding in one of two ways: (a) biotinylated samples were analyzed by adding 100 µL streptavidin–HRP conjugate in TBST (1 : 2500 dilution) to the samples followed by incubation for 3 h at RT on a shaker, or (b) samples without biotin were analyzed by adding 100 µL TBST containing the primary antibody as per the manufacturer's recommendation, incubating for 3 h at RT on a shaker, followed by washing the wells 4× with TBST. The secondary antibody in 100 µL TBST was then added to the samples following the manufacturer's recommendation and incubated for 1 h at RT on a shaker. […] The reaction was stopped with 100 µL 2 M H2SO4 after incubating at RT for 0.5–15 min, resulting in a yellow color change, measured by absorbance at 450 nm. To monitor nonspecific binding, negative control wells on the plates included, for example, bound Aβ peptide then adding all components, streptavidin‐HRP and TMB, but without addition of biotin‐HN. Some wells were coated with 2.5, 10, 50, 100, 500, and 5000 nM biotin‐HN or Aβ to allow conversion of the OD measurements to concentrations of bound material. Before analysis, the OD from the data was corrected for nonspecific binding by subtracting the mean background absorbance for the negative controls. Typically, in control wells incubated on each plate, the background binding is about 10–15% of the maximum binding seen with addition of biotin peptides or antibodies. Statistical analysis was determined by the […] PRISM 8.4.3 software (San Diego, CA, USA). Data were expressed as the mean ± SD. […]
Anti‐Aβ‐specific antibodies (82E1) were added (1 : 1000 dilution) to ELISA plate wells (Fig. 6). The wells were blocked, and then, 300 µL of the conditioned media (0.5 µg·µL^−1) of A549 or H1299 cells, 72 h postserum starvation, was added in the absence or presence of increasing HN concentrations, and the HN and AChE bound were detected using the corresponding specific primary antibodies. Fold change relative to controls that included all components but without the primary antibodies was calculated and fit with a nonlinear regression curve using the […] […]

A549 cells = conditions: cited from earlier work
Description: Since addition of ATP appears to increase binding of HN to Aβ, and conversely, decreases the interaction of Aβ with AChE (Figs 3, 4, 5, 6), we tested the effect of added ATP on A549 and H1299 cell viability (Fig. 7). Exogenously added ATP at either 100 µM or 1 mM had no effect on viability of either A549 (Fig. 7A) or H1299 cells (Fig. 7B).

Aβ40 = conditions: HN and AChE compared; cited from earlier work
Description: Amino acid residues involved in direct interactions between HN and Aβ40 were identified previously by molecular modeling. The specific epitopes at the binding interface between HN and Aβ40 were identified, by proteolytic epitope excision and extraction in addition to affinity–mass spectrometric data analysis, to be HN (5–15) and Aβ (17–28). […] Inhibiting the 17–28 region of Aβ reduced aggregation of the neurotoxic amyloid fibrils and related cytotoxicity in SH‐SY5Y, a human neuroblastoma cell ... || Humanin has been previously reported to bind amino acid residues 17–28 of Aβ (Fig. 1). AChE is also known to bind Aβ (1–16) and the Aβ (12–28) region (Fig. 1). Since the binding sites of AChE and HN on Aβ are overlapping, we previously investigated whether HN and AChE can simultaneously bind Aβ [79].

AChE-Aβ interaction = conditions: cited from earlier work
Description: Access to the central domain of Aβ (residues 17–24) flanked by Lys‐16 and Lys‐28, known to be a critical structural element in fibrillar Aβ aggregates, might be regulated by binding of AChE and HN to their overlapping binding sites on Aβ. […] Moreover, we s ...

Compound	increase in the amount of HN bound to Aβ ([1]; 100 μM ATP)	increase in the amount of HN bound to Aβ ([1]; 1 mM ATP)	effect of ATP on binding of exogenously added HN to Aβ ([2]; 0.1 mM, 1 mM ATP (more pronounced at 1 mM), A549 media)	effect of ATP on binding of Aβ to AChE ([2]; A549 cell-conditioned media, 82E1)	effect of ATP on binding of endogenous HN to Aβ ([2]; increasing ATP (0.1 mM, 1 mM; more pronounced at 1 mM), A549 media, 82E1)	effect of ATP on A549 cell viability (A549 cells; 100 μM or 1 mM ATP)	HN concentration at which signal begins to level off ([2]; exogenous HN, A549 media)	binding of exogenous HN to Aβ ([2]; increasing exogenous HN, A549 media, 82E1)	cell viability upon ID of HN (A549 cells; HN immunodepleted from A549 conditioned media)	apoptosis upon ID of HN (A549 cells; HN-ID A549 media)	affinity for Aβ40 (Aβ40)	effect of HN on binding of AChE to Aβ (AChE-Aβ interaction)
Nc1ncnc2c1ncn2[C@@H]1O[C@H](COP(=O)(O)OP(=O)(O)OP(=O)(O)O)[C@@H](O)[C@H]1O [ATP, Adenosine triphosphate]	~ 1.85 fold	~ 2.5 fold	decreased binding of exogenously added HN	decreased upon addition of ATP	increased binding of endogenous HN	no effect	–	–	–	–	–	–
Humanin [HN]	–	–	–	–	–	–	around 50 nM	increased binding to Aβ	diminished cell viability	increased apoptosis	comparable affinities	it is not abolished
